We go through 1 compound from US4963565A, “In vivo treatment of mycobacterial infections with 6-cyclo octylamino-5,8-quinoline quinone” (priority 1986, dated 1990).

As a reminder, the LD50 is the dose at which mortality reaches 50%. Higher therefore signals lower toxicity.

In data set [1] the test system is macrophages. The experiment in a line: Cytotoxicity to macrophages (Table 3 footnote). The note with it: Sample I; 200 NG/ML (cell printed *). The data set is classed as cell-based, human. The source says: Blood from a healthy volunteer was drawn and monocytes were removed and cultured to the macrophage stage. This required about 7 days. The macrophages were then exposed to M. leprae bacilli obtained from biopsy specimens of leprosy patients. One sample was exposed to CQQ, while other samples were exposed to DDS (diaminodiphenyl sulphone), the standard antileprosy drug, or rifampin, at various concentrations. Macrophages were exposed to radiolabelled tritium (^3 H) labeled thymidine, and its uptake was measured using a liquid scintillation counter. A control model of M. leprae exposed macrophages, which was not treated was used as well. The uptake of thymidine is a measure of antimycobacterial activity.

Data set [2] concerns M. tuberculosis. The note with it: Gangadharam et al.; cited from earlier work.
The subject of data set [3] is Mycobacterium intracellulare strain 571-8. Kind of data set: In vivo chemotherapeutic activity against M. intracellulare, acute model in Beige mice (Example 1). On the set-up: species or system M. intracellulare (host: Beige mice, C57Bl/6/bg/bg). The conditions noted are these: FIG. 1.
The subject of data set [4] is C57Bl/6 and Beige mice. The experiment in a line: Chronic toxicity in C57Bl/6 and Beige mice. The data set is classed as in vivo. The note with it: 40 mg/kg/day, and intraperitoneal doses over 30 mg/kg, more than 60 days. As for the experimental part:
(§1) Studies were performed to obtain toxicity data. […] Extrapolating, this corresponds to an LD50 of approximately 40 gr for a 70 kg subject. For chronic toxicity studies both C57Bl/6 and Beige mice were administered doses of 40 mg/kg/day, and intraperitoneal doses over 30 mg/kg for more than 60 days.

Data set [5] is described as follows: Acute toxicity in C57Bl/6 mice. The data set is classed as in vivo. The note with it: mouse, in vivo, ip; C57Bl/6 mice, intraperitoneal. As for the experimental part: as §1
Data set [6] deals with C57Bl/6 mice. Kind of data set: Acute toxicity in C57Bl/6 mice. The data set is classed as in vivo. The note with it: 70 kg subject, extrapolated from mouse LD50. As for the experimental part:
as §1

The test system of data set [7] is M. tuberculosis H37 Rv. The experiment in a line: In vitro activity against growing culture of M. tuberculosis in Middlebrook 7H9 broth. The note with it: 2 mcg/ml, FIG. 7.
For data set [8], the system named is blood clotting. The experiment in a line: Effect on blood clotting. The data set is classed as in vivo. The conditions noted are these: oral, intraperitoneal and intramuscular, varying amounts, FIG. 8. As for the experimental part: Due to its relationship to Vitamin K, there was some concern as to the effect CQQ would have on blood clotting. Varying amounts of CQQ were administered orally, intraperitoneally, and intramuscularly.

In data set [9] the test system is lymphocytes. The experiment in a line: Effect on chromosomal structures in lymphocytes. The data set is classed as cell-based, human. The note with it: 0.5 ml of 10 mcg/ml solution. As for the experimental part:
In order to determine the effect of CQQ on chromosomes, blood was collected from a healthy volunteer, and lymphocytes were isolated from the sample. These were cultivated in a folate deficient medium, and after approximately 24 hours of cultivation, 0.5 ml of a solution of CQQ (10 mcg/ml) was added to the culture. Incubation at 37° C. for 72 hours followed. The lymphocytes were then harvested, following routine laboratory porocedures and were stained with Giemsa stain.

Take `O=C1C(NC2CCCCCCC2)=CC(=O)c2ncccc21` [CQQ, 6-cyclo octylamino-5,8-quinoline quinone]: the Cytotoxic to macrophages entry in [1] is “CYTOTOXIC TO MACROPHAGES”. The “In vitro effectiveness against M. tuberculosis” value in [2] is “effective against M. intracellulare and M. tuberculosis in vitro”. The “Activity vs infected untreated control” value in data set [3] (10 mg/kg orally daily, each time point (P 0.05)) was “considerable activity with a statistically significant difference”. Also, the “Activity compared with ansamycin” value in [3] (both 10 mg/kg orally daily) was “better than that of ansamycin”. Moreover, the “Visible toxic manifestation or death” value in data set [4] is “No visible toxic manifestation or death”. The LD50 in data set [5] stood at 564 mg/kg. Further, in data set [6], the “LD50 extrapolated to a 70 kg subject” value is recorded as “approximately 40 gr”. Also, in data set [7], the “Inhibitory activity against tubercle bacilli” value is recorded as “remarkable inhibitory activity”. Besides, in data set [8], the Blood clotting time result is given as “little change in blood clotting time”. Also, the “Assessment of chromosomal breaks” value in data set [9] (72 hours) was “fully within the normal limits”. The “Total number of chromosomal breaks” value in data set [9] (72 hours at 37° C., at least 50 cells counted) stood at 7. The “Cells with chromosomal breaks” value in data set [9] (72 hours at 37° C., of at least 50 cells counted) was determined as 5.
